{"source": "patent US20250213606A1", "about": "“MEDICINAL AGENT (EMBODIMENTS) AND DEVICE FOR USING SAME” (priority 2022, published 2025)", "key": {"[1]": {"tested_on": "laboratory animals and volunteer testers", "assay": "Effective concentration ranges of the components of the mixture", "type": "in vivo"}, "[2]": {"details": "governs risk of condensation in cold conditions; cited from earlier work"}}}
{"compound": "[Ar]", "note": "[argon]", "values": [{"measurement": "range of efficiency with the greatest effect, concentration in a mixture with oxygen", "setting": "[1]; laboratory animals, volunteer testers and foreign sources", "result": "30-70 % by volume"}]}
{"compound": "[He]", "note": "[helium]", "values": [{"measurement": "effective content providing antihypothermic and antihypoxic effects", "setting": "[1]; in a mixture with oxygen from 21, argon at least 25 % by volume, xenon and krypton, mixture temperature 30 to 70° C.", "result": "at least 40 % by volume"}]}
{"compound": "[Kr]", "note": "[krypton]", "values": [{"measurement": "critical temperature", "setting": "[2]", "result": 209.35, "unit": "K"}]}
